Results: US9167812B2, “Biocide compositions comprising amides based on 2-furoic acid and its derivatives” (Cognis IP Management GmbH, priority 2010, dated 2015)
Where two headings read alike, the source gives them in different places. Values belong to the molecule of their own block, whether it stands above or below them.

Columns and labels:
[1] = Solubility in water of each amide; type: physicochemical
Procedure: (§1) Solubility of several pesticides was measured in THF amides versus other amides. In addition the solubility in water of each amide has been checked.

[2] = Solubility of pesticides in THF amides versus other amides; type: physicochemical
Procedure: as §1

[3] = solubility of the amide solvent in water

Structure (SMILES): CCCCCCCCCC(=O)N(C)C [Example C3, C10 dimethyl amide, reference compound]
Water solubility [1, 3]: Low
Solubility of biocides: Epoxyconazole ([2]; Epoxyconazole dissolved in the named solvent): 8 % b.w.
Solubility of biocides: Imidacloprid ([2]; Imidacloprid dissolved in the named solvent): 2 % b.w.
Solubility of biocides: Oxyfluorfen ([2]; Oxyfluorfen dissolved in the named solvent): 27 % b.w.
Solubility of biocides: Tebuconazole ([2]; Tebuconazole dissolved in the named solvent): 32 % b.w.

Structure (SMILES): CN(C)C(=O)c1ccco1 [Example 5, 2-Furoic acid dimethyl amide]
Water solubility [1, 3]: Medium

Structure (SMILES): CN(C)C(=O)C1CCCO1 (stereo not shown) [Example 7, THF dimethyl amide]
Water solubility [1]: High
Solubility of biocides: Epoxyconazole [2]: 10 % b.w.
Solubility of biocides: Imidacloprid [2]: 19 % b.w.
Solubility of biocides: Oxyfluorfen [2]: 31 % b.w.
Solubility of biocides: Tebuconazole [2]: 46 % b.w.

Next, values leading:

Water solubility [1, 3]: Medium
Structure (SMILES): CCCCN(CCCC)C(=O)c1ccco1 [Example 6, 2-Furoic acid dibutyl amide]

Water solubility [1, 3]: Medium
Structure (SMILES): CCCCN(CCCC)C(=O)C1CCCO1 (stereo not shown) [Example 8, 2-Tetrahydrofuroic Acid Dibutylamide]
